Data on one molecule can be found in patent US20240228474A1, “ANTIBACTERIAL COMPOUND” (DISCUVA LIMITED, priority 2021, published 2024).

Broadly, the logP is the decadic logarithm of the partition coefficient of the neutral form, usually between octanol and water. One may read the MIC as the lowest concentration that inhibits growth of the organism. Low values mean greater potency, high ones weaker potency.

Molecules are shown by their SMILES. Converted amounts (≈) assume the structure as drawn.

For data set [1], the system named is E. coli BAA-2469 (NDM-1 positive). The data set can be described thus: Murine bacteraemia / bloodstream infection proof-of-concept study, IV bolus. The data set is classed as in vivo. Here is the method:
Compound (I) and comparative compound (III) were evaluated in proof-of-concept studies in murine models for the treatment of a respiratory infection with Gram-negative bacteria of the order Enterobacterales, a bacteraemia or bloodstream infection with Gram-negative bacteria of the order Enterobacterales, and a urinary tract infection with Gram-negative bacteria of the order Enterobacterales. Each dot, triangle or square indicator represents a single mouse. LOD refers to the limit of detection of the bacteria. […] Each of the proof-of-concept studies was carried out separately. By vehicle is meant pharmaceutically acceptable carrier or excipient.
For the proof-of-concept study for the treatment of a bacteraemia or bloodstream infection with Gram-negative bacteria of the order Enterobacterales, CD-1 mice were infected with human urine isolate E. coli BAA-2469 (NDM-1 positive). One hour after infection (‘pre-treatment’ in FIG. 3), a vehicle (20% hydroxypropyl β cyclodextrin) containing no compound (I) or comparative compound (III), or a vehicle (20% hydroxypropyl β cyclodextrin) containing compound (I) or comparative compound (III), was administered by as a single dose IV bolus at 20 mg/kg.

For data set [2], the system named is Klebsiella pneumoniae ATCC 43816. The data set can be described thus: Further murine respiratory infection study, intravenous infusion. The data set is classed as in vivo. The note with it: 26 h. As for the experimental part: Compound (I) was evaluated in further proof-of-concept studies in murine models for the treatment of a respiratory infection with Gram-negative bacteria of the order Enterobacterales, and a urinary tract infection with Gram-negative bacteria of the order Enterobacterales. Each dot, triangle or square indicator represents a single mouse. LOD refers to the limit of detection of the bacteria. […] Each of the proof-of-concept studies was carried out separately. By vehicle is meant pharmaceutically acceptable excipient or carrier. For the further proof-of-concept study for the treatment of a respiratory infection caused or exacerbated by Gram-negative bacteria of the order Enterobacterales, male CD-1 mice were infected with Klebsiella pneumoniae ATCC 43816. Two hours after infection (‘pre-treatment’ in FIG. 5), mice were either treated with a vehicle control (phosphate buffer) containing no compound (I), or a vehicle (phosphate buffer) containing compound (I), administered by intravenous infusion for 1 hour (QD) with a dose of 20 mg/kg of compound (I). For the mice that received the vehicle control containing no compound (I), and some mice who received the vehicle containing compound (I), an additional 1-hour continuous intravenous infusion was administered 3 hours after the time at which the first administration begun (BID, 3 hrs apart).

Data set [3] is described as follows: Lipophilicity, Log P measured with SiriusT3 (octanol titration). The data set is classed as physicochemical. The note with it: octanol / aqueous sample solution. As for the experimental part:
Log P values of compound (I) and comparative compound (III) were measured using the SiriusT3 instrument from Sirius Analytical by performing an acid-based titration and measuring the shift in pKa when the sample solution is in contact with an immiscible solvent (octanol). Log P for the comparative compound (II) was calculated using Marvin (physico-chemical calculation software). The lipophilicity data for compound (I) and comparative compounds (II) and (III) was collected in separate experiments carried out on different days, and compared in Table 5.

Data set [4] relates to Proteus mirabilis (DSM 4479). Kind of data set: MIC by broth microdilution (CLSI). The data set is classed as cell-based. The note with it: DSM4479. Here is the method:
Minimum Inhibitory Concentrations (MICs) versus Escherichia coli (NCTC 13441) and Klebsiella pneumoniae (NCTC 13438) (planktonic bacteria) were determined by the broth microdilution procedure in line with the guidelines of the Clinical and Laboratory Standards Institute (Clinical and Laboratory Standards Institute. Methods for Dilution Antimicrobial Susceptibility Tests for Bacteria That Grow Aerobically, Approved Standard-Eleventh Edition, CLSI document M07, 11 Jan. 2018). The broth dilution method involved a two-fold serial dilution of compounds in 96-well microtitre plates, giving a final concentration range of 0.39-200 μM and a maximum final concentration of 2% DMSO. The bacterial strains tested were Escherichia coli (NCTC 13441) and Klebsiella pneumoniae (NCTC 13438). Strains were grown in cation-adjusted Müller-Hinton broth or on Luria Bertani agar at 37° C. in an ambient atmosphere. The MIC (μM) was determined as the lowest concentration of compound that inhibits growth following a 20-24 hour incubation period.
Minimum Inhibitory Concentrations (MICs) versus Proteus mirabilis (DSM 4479) were determined for compound (I) and comparative compounds (II) and (III) using the methodology outlined above.
Background: Dilution methods test growth across graded concentrations, often in twofold steps.

The nature of the next data set: Permeability. The data set is classed as in vitro ADME.
Data set [5] concerns Providencia spp. (10 isolates). Kind of data set: MIC by broth microdilution (EUCAST), 10 isolates. The data set is classed as cell-based. As for the experimental part: (§1) Minimum Inhibitory Concentration (MIC90) versus 100 isolates of Escherichia coli and Klebsiella pneumonia were determined. The Minimum Inhibitory Concentration at which 90% of the isolates (strains) are inhibited (MIC90) were measured by broth microdilution in line with EUCAST susceptibility testing standards (www.eucast.org). Bacterial inocula were prepared at ca 1×10^6 CFU/mL by diluting 100-fold a 0.5 McFarland suspension. Antibacterial panels containing 50 μl of antibacterial solutions at 2× the final concentrations were diluted 2-fold with 50 μl of inoculum to give a final inoculum of ca 5×10^5 CFU/ml and desired test concentrations of antibacterial agents (0.03-64 μg/mL). The plates were incubated according to the guidelines of the Clinical and Laboratory Standards Institute (Clinical and Laboratory Standards Institute. Methods for Dilution Antimicrobial Susceptibility Tests for Bacteria That Grow Aerobically; Approved Standard-Eleventh Edition, CLSI document […], 11 Jan. 2018). The MIC90 (μg/ml) is the MIC value at which greater than or equal to 90% of the isolates (strains) within a test population are inhibited. Minimum Inhibitory Concentrations (MICs) versus Proteus spp. and Providencia spp. were determined for compound (I) and comparative compound (III) using the methodology outlined above for the 100 isolates of Escherichia coli and Klebsiella pneumonia.

For data set [6], the system named is Proteus spp. (10 isolates). The data set can be described thus: MIC by broth microdilution (EUCAST), 10 isolates. The data set is classed as cell-based. Here is the method: as §1
Setting [7] is: 1 h IV infusion 20 mg/kg twice (BID, 3 hrs apart).

As for `Cc1cnccc1-c1[nH]c(N)nc1-c1ccc2c(c1)N(C(=O)C(C)(C)N)CCO2` [Compound (I), 2-amino-1-(6-(2-amino-5-(3-methylpyridin-4-yl)-1H-imidazol-4-yl)-2,3-dihydro-4H-benzo[b][1,4]oxazin-4-yl)-2-methylpropan-1-one], the “reduction of bacterial burden in the blood compared to vehicle” value in data set [1] (CD-1 mice, single dose IV bolus 20 mg/kg, 9 h from initial infection) was 7.43 log. In addition, the “more efficacious than comparative compound (III), blood” value in data set [1] (difference in log reduction, 9 h) is given as 2.5 log. For the same molecule, the “bacterial burden (CFU) in the blood at end of study” value in data set [1] (single dose IV bolus 20 mg/kg, 9 h from initial infection) is listed as “below the limit of detection (LOD)”. Moreover, the “reduction of bacterial burden in the lung compared to pre-treatment (stasis levels)” value is on record as 0.95 log in data set [2] (1 h IV infusion 20 mg/kg once (QD)) and 1.80 log in data set [2] (setting [7]). In addition, the “reduction of bacterial burden in the lung compared to vehicle” value in data set [2] (setting [7]) came out at 5.20 log; in data set [2] (male CD-1 mice, 1 h IV infusion 20 mg/kg once (QD)) it was 4.35 log. For the same molecule, the logP in data set [3] was found to be 1.6. In data set [4], the lowest concentration to inhibit growth (MIC) was 25 µM (≈ 9.81 µg/mL). For the same molecule, in the data set “Permeability”, the permeability result is recorded as “good permeability”. The “MIC Range” value in data set [5] fell in the range of 0.5 to 16 µg/mL; in data set [6], 8 to 32 µg/mL.
